Results from patent publication US11434237B2, “Selective ligands for tau aggregates” (KARIN & STEN MORTSTEDT CBD SOLUTIONS AB, priority 2017, dated 2022).
“Also recorded” adds a separate entry of the source.

How the values were obtained:
Aβ aggregates = molecular target: T1, Aβ aggregates (Homo sapiens, UniProt P05067); assay: Compound and antibody 4G8 double staining of AD brain tissue sections; type: binding; settings: for Overlap between Fluorescence from tested compound and fluorescence from 4G8 observed / Fluorescence from tested compound observed / Staining of / selectivity for Aβ and tau aggregates in AD brain sections: 100 nM compound; for Overlap between Fluorescence from tested compound and fluorescence from 4G8 observed / Fluorescence from tested compound observed: human AD brain tissue sections; for Overlap between Fluorescence from tested compound and fluorescence from 4G8 observed: Aβ antibody 4G8; for Fluorescence from tested compound observed: double staining with Aβ antibody 4G8; for Staining of / selectivity for Aβ and tau aggregates in AD brain sections: stained in combination with 4G8; for Fluorescence from 4G8 observed: signal of Aβ antibody 4G8 in the section stained with 100 nM of the compound
T1 construct: compound and antibody double staining of Aβ or tau aggregates; from tissue; host or cells: human AD brain tissue sections (20 μm)
Procedure: (§1) To achieve compound and antibody double staining of Aβ or tau aggregates, tissue sections (20 μm) from human AD brain were fixed in 70% EtOH at 4° C. for 3 min, rehydrated in distilled water and then incubated in PBS for 30 min. Sections were blocked and permeabilized in PBS with 5% normal goat serum and 0.1% triton X-100 (blocking buffer) for 1 h at room temperature (RT). Antibody 4G8 (Biolegend, San Diego, Calif., USA) reactive to Aβ, and AT100 (Thermo Fisher Scientific, Waltham, Mass., USA) directed against tau phosphorylated at […] (3) were diluted 1:500 and 1:1000, respectively, in blocking buffer and added to the sections. After 16 h incubation at 4° C. unbound antibody was removed by washing in PBS with 0.1% triton X-100 (PBS-T) 3×10 min. To visualize antibody binding to Aβ or tau aggregates sections were incubated with goat anti-mouse secondary antibody labelled with Alexa 647 (Thermo Fisher Scientific). The antibody was diluted 1:200 in blocking buffer and after 1 h incubation at RT sections were washed in PBS 3×10 min. Example Compound 3a, Example Compound 3b, Example Compound 3c, Example Compound 3d, Example Compound 3e, Example Compound 3f, Example Compound 3g, Example Compound 3h, Example Compound 3i, Example Compound 3j, Example Compound 3k, Example Compound 3m, Example Compound 3n, Example Compound 3o, Example Compound 3p, Example Compound 3q, Example Compound 3r, Example Compound 3s, Example Compound 3t, Example Compound 3u, Example Compound 8a, Comparative Example 1, Comparative Example 2, Comparative Example 3 and Comparative Example 4 were dissolved in DMSO to a concentration of 1.5 mM and then further diluted in PBS to a final concentration of 100 nM compound prior to staining. The tissue sections were then stained for 30 min at RT with these freshly prepared solutions containing 100 nM of the respective compound in PBS. After three washes in PBS the sections were mounted in Dako mounting medium for fluorescence (Dako Cytomation, Glostrup, Denmark) and allowed to dry overnight before analysis. Fluorescence images were collected using an inverted LSM 780 confocal microscope (Carl Zeiss, Oberkochen, Germany) with the following excitation/emission wavelengths optimized for each compound: 458/484-600 (Comparative Example 1, Comparative Example 3), 561/569-648 (Example Compound 3a, Example Compound 3b, Example Compound 3c, Example Compound 3d, Example Compound 3e, Example Compound 3f, Example Compound 3g, Example Compound 3h, Example Compound 3i, Example Compound 3j, Example Compound 3k, Example Compound 3m, Example Compound 3n, Example Compound 3o, Example Compound 3p, Example Compound 3q, Example Compound 3r, Example Compound 3s, Example Compound 3t, Example Compound 3u, Example Compound 8a, Comparative Example 2 and Comparative Example 4) and 633/638-755 (Alexa 647). To visualize autofluorescent lipofuscin excitation/emission wavelengths 405/410-480 or 405/410-514 were used.

tau aggregates = molecular target: T2, tau aggregates (Homo sapiens, UniProt P10636); assay: Compound and antibody AT100 double staining of AD brain tissue sections; type: binding; settings: for Labelling of immune-positive NFTs and dystrophic neurites / Fluorescence from tested compound observed / Overlap between Fluorescence from tested compound and fluorescence from AT-100 observed: 100 nM compound; for Labelling of immune-positive NFTs and dystrophic neurites: AT100 co-staining, AD brain sections; for Fluorescence from tested compound observed / Overlap between Fluorescence from tested compound and fluorescence from AT-100 observed: human AD brain tissue sections; for Fluorescence from tested compound observed: double staining with tau antibody AT-100; for Overlap between Fluorescence from tested compound and fluorescence from AT-100 observed: tau antibody AT-100; for Fluorescence from AT-100 observed: signal of tau antibody AT-100 in the section stained with 100 nM of the compound
T2 construct: tissue sections (20 μm) from human AD brain; from tissue; host or cells: human AD brain tissue sections (20 μm)
Procedure: as §1

T1 sequence (P05067 672-713 limits assumed): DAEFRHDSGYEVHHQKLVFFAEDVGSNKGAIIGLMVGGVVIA
T2 sequence (P10636 1-441 isoform P10636-8): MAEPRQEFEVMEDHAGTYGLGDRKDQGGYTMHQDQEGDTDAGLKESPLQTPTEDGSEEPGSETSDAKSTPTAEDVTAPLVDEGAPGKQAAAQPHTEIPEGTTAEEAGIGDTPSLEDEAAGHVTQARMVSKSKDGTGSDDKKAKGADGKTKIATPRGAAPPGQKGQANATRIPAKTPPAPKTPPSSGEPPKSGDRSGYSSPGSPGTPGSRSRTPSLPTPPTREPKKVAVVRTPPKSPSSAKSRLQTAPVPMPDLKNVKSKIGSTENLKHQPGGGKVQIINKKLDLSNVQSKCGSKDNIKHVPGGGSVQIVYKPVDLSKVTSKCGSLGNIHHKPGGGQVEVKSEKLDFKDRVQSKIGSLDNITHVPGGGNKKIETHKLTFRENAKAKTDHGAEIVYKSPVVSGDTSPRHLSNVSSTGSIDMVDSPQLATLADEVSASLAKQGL

Row | Overlap between Fluorescence from tested compound and fluorescence from 4G8 observed (Aβ aggregates) | Fluorescence from tested compound observed (Aβ aggregates) | Fluorescence from 4G8 observed (Aβ aggregates) | Fluorescence from tested compound observed (tau aggregates) | Overlap between Fluorescence from tested compound and fluorescence from AT-100 observed (tau aggregates) | Fluorescence from AT-100 observed (tau aggregates) | SMILES | Staining of / selectivity for Aβ and tau aggregates in AD brain sections (Aβ aggregates) | Labelling of immune-positive NFTs and dystrophic neurites (tau aggregates)
1 | yes | Yes | yes |  |  |  | CCn1c(/C=C/c2ccc(-c3ccc(C(=O)OC)s3)s2)nc2ccccc21 [Comparative Example 1] | staining towards immune-positive Aβ aggregates, as well as some weak staining of tau-like pathology; also recorded: selectivity for Aβ | 
2 |  | no | yes |  |  |  | COC(=O)Cc1cc(-c2ccc(-c3nc4ccccc4s3)s2)sc1-c1cc(C(=O)OC)cs1 [Comparative Example 2] | did not display any substantial staining; also recorded: no staining | 
3 | yes | yes | yes |  |  |  | O=C(O)Cc1cc(-c2ccc(-c3nc4ccccc4s3)s2)sc1-c1cc(C(=O)O)cs1 [Comparative Example 3] | staining of both Aβ and tau aggregates; also recorded: no selectivity | 
4 |  | no | yes |  |  |  | COC(=O)c1csc(-c2ccc(-c3ccc(-c4nc5ccccc5s4)s3)s2)c1 [Comparative Example 4] | did not display any substantial staining; also recorded: no staining | 
5 | no correlation and no | yes | yes | yes | yes | yes | CC[n+]1c(/C=C/c2ccc(-c3cccs3)s2)sc2ccccc21 [Example Compound 3c] |  | labelled both immune-positive NFTs and dystrophic neurites
6 | no correlation and no | yes | yes | yes | yes | yes | CC[n+]1c(/C=C/c2ccc(-c3ccc(CC(=O)OC)s3)s2)sc2ccccc21.[I-] [Example Compound 3d] |  | labelled both immune-positive NFTs and dystrophic neurites
7 | no correlation and no | yes | yes | yes | yes | yes | CC[n+]1c(/C=C/c2ccc(-c3ccc(C(=O)OC)s3)s2)sc2cc(OC)ccc21.[I-] [Example Compound 3e] |  | labelled both immune-positive NFTs and dystrophic neurites
8 | no correlation and no | yes | yes | yes | yes | yes | COC(=O)c1ccc(-c2ccc(/C=C/c3sc4ccccc4[n+]3C)s2)s1.[I-] [Example Compound 3f] |  | labelled both immune-positive NFTs and dystrophic neurites
9 | no correlation and no | yes | yes | yes | yes | yes | CC[CH-][n+]1c(/C=C/c2ccc(-c3ccc(C(=O)OC)s3)s2)sc2ccccc21 [Example Compound 3g] |  | labelled both immune-positive NFTs and dystrophic neurites
10 | no correlation and no | yes | yes | yes | yes | yes | CC[n+]1c(/C=C/c2ccc(-c3ccc(OC)s3)s2)sc2ccccc21.[I-] [Example Compound 3h] |  | labelled both immune-positive NFTs and dystrophic neurites
11 | no correlation and no | yes | yes | yes | yes | yes | CC[n+]1c(/C=C/c2ccc(-c3ccc(C(=O)OC)o3)o2)sc2ccccc21.[I-] [Example Compound 3i] |  | labelled both immune-positive NFTs and dystrophic neurites
12 | no correlation and no | yes | yes | yes | yes | yes | CC[n+]1c(/C=C/c2cnc(-c3ccc(C(=O)OC)s3)s2)sc2ccccc21.[I-] [Example Compound 3j] |  | labelled both immune-positive NFTs and dystrophic neurites
13 | no correlation and no | yes | yes | yes | yes | yes | CC[n+]1c(/C=C/c2ccc(-c3ccc(C(=O)OC)cn3)s2)sc2ccccc21.[I-] [Example Compound 3k] |  | labelled both immune-positive NFTs and dystrophic neurites
14 | no correlation and no | yes | yes | yes | yes | yes | CC[n+]1c(/C=C/c2ccc(-c3ccc4c(c3)OCO4)s2)sc2ccccc21.[I-] [Example Compound 3m] |  | labelled both immune-positive NFTs and dystrophic neurites
15 | no correlation and no | yes | yes | yes | yes | yes | CC[n+]1c(/C=C/c2ccc(-c3ccc4nsnc4c3)s2)sc2ccccc21 [Example Compound 3n] |  | labelled both immune-positive NFTs and dystrophic neurites
